Laboratory results reported in patent US8802638B1, “Flavonoid treatment of glycogen synthase kinase-based disease” (University of South Florida, priority 2007, dated 2014).

Key:
Format in all cases: cell-based, murine
GSK-3α/β = GSK-3α/β (Mus musculus, UniProt Q2NL51); assay: Western blot of phosphorylated GSK-3α/β forms in SweAPP N2a cells; parameters: endogenous in cells; host or cells: SweAPP N2a cells; conditions: 20 μM
Experimental: Cultured cells or mouse brain were lysed in ice-cold lysis buffer described above, and an aliquot corresponding to 50 μg of total protein was electrophoretically separated using 12% Tris-HCl or 16.5% Tris-tricine gels. Electrophoresed proteins were then transferred to PVDF membranes, washed in dH2O, and blocked for 1 hr at ambient temperature in Tris-buffered saline (TBS; Bio-Rad) containing 5% (w/v) non-fat dry milk. After blocking, membranes were hybridized for 1 hr at ambient temperature with various primary antibodies. Membranes were then washed 3× for 5 min each in dH2O and incubated for 1 hr at ambient temperature with the appropriate HRP-conjugated secondary antibody (1:1,000). […] Densitometric analysis was done as previously described using a FluorS Multiimager with Quantity One™ software (39). […] Antibodies used for Western blot included the APP-carboxyl-terminal antibody (1:50)), amino-terminal APP antibody (clone 22C11), or 6E10 (1:1,000), or actin antibody (1:1,500; as an internal reference control). γ-secretase activity was quantified in cell lysates using available kits based on secretase-specific peptides conjugated to fluorogenic reporter molecules. […]

SweAPP N2a cells = assay: APP proteolysis (Aβ ELISA, IP, APP CTF Western blot) in SweAPP N2a cells
Experimental: (§1) Cultured cells or mouse brain were lysed in ice-cold lysis buffer described above, and an aliquot corresponding to 50 μg of total protein was electrophoretically separated using 12% Tris-HCl or 16.5% Tris-tricine gels. Electrophoresed proteins were then transferred to PVDF membranes, washed in dH2O, and blocked for 1 hr at ambient temperature in Tris-buffered saline (TBS; Bio-Rad) containing 5% (w/v) non-fat dry milk. After blocking, membranes were hybridized for 1 hr at ambient temperature with various primary antibodies. Membranes were then washed 3× for 5 min each in dH2O and incubated for 1 hr at ambient temperature with the appropriate HRP-conjugated secondary antibody (1:1,000). Antibodies were obtained against the amino-terminus and carboxyl-terminus of PS1 (Chemicon, Temecula, Calif.), amino-terminus and carboxyl-terminus of APP (22C11), actin (Roche, Basel, Switzerland), Aβ (6E10, 48G) (Signet Laboratories, Dedham, Mass.), phosphor-GSK3α (ser^21, clone BK202) (Upstate, Lake Placid, N.Y.), phospho-GSK3α/β (pTyr^279/216) (Sigma), phospho-GSK-3β (Ser^9) (Sigma) and total GSK-3α/β (Sigma). All antibodies were diluted in TBS containing 5% (w/v) of non-fat dry milk. Blots were developed using the luminol reagent (Pierce Biotechnology). Densitometric analysis was done as previously described using a FluorS Multiimager with Quantity One™ software (39). Immunoprecipitation was performed for detection of sAPP-α, sAPP-β and Aβ by incubating 200 μg of total protein of each sample with various sequential combinations of 6E10 (1:100) and/or 22C11 (1:100) antibodies overnight with gentle rocking at 4° C., and 10 μL of 50% protein A-Sepharose beads were then added to the sample (1:10; Sigma) prior to gentle rocking for an additional 4 hrs at 4° C. Following washes with 1× cell lysis buffer, samples were subjected to Western blot as described above. Antibodies used for Western blot included the APP-carboxyl-terminal antibody (1:50)), amino-terminal APP antibody (clone 22C11), or 6E10 (1:1,000), or actin antibody (1:1,500; as an internal reference control). γ-secretase activity was quantified in cell lysates using available kits based on secretase-specific peptides conjugated to fluorogenic reporter molecules.
SweAPP N2a cells and primary neuronal cells derived from Tg2576 mice were treated with varying doses of luteolin to examine luteolin's effect on APP proteolysis. Cellular extracts were collected and analyzed using immunoprecipitation (IP), Western blot, and ELISA. […] See FIGS. 1 through 2(B) and 5 through 6(B). SweAPP N2a and primary Tg2576-derived neuronal cells CTF profiles were analyzed following luteolin treatment to determine at which level luteolin impacts amyloid processing.

PS1-APP association = assay: PS1-APP association, immunoprecipitation/Western blot in SweAPP N2a cells; conditions: 20 μM for 4 hrs or siRNA transfection
Experimental: as §1, with “(1:1,000).” for “(1:1,000). Antibodies were obtained against the amino-terminus and carboxyl-terminus of PS1 (Chemicon, Temecula, Calif.), amino-terminus and carboxyl-terminus of APP (22C11), actin (Roche, Basel, Switzerland), Aβ (6E10, 48G) (Signet Laboratories, Dedham, Mass.), phosphor-GSK3α (ser^21, clone BK202) (Upstate, Lake Placid, N.Y.), phospho-GSK3α/β (pTyr^279/216) (Sigma), phospho-GSK-3β (Ser^9) (Sigma) and total GSK-3α/β (Sigma).”, “software.” for “software (39).”, “kits (R&D Systems, Minneapolis, Minn.),” for “kits”
Cell lysates of luteolin-treated SweAPP N2a cells were immunoprecipitated by PS1 antibody and probed for APP to clarify how phospho-PS1 CTF isoforms may regulate γ-secretase activity, seen in FIGS. 26(A) through 27(B). As illustrated in FIGS. 26(A) and (B), the APP-PS1 association is disrupted by luteolin, SB-415286 treatment, and GSK-3α siRNA. […] Thus, GSK-3α or, more specifically, downstream phosphorylation of the PS1 CTF plays an essential role in regulating the association of γ-secretase complex with its APP substrate.

Sequence of GSK-3α/β (Q2NL51 2-490): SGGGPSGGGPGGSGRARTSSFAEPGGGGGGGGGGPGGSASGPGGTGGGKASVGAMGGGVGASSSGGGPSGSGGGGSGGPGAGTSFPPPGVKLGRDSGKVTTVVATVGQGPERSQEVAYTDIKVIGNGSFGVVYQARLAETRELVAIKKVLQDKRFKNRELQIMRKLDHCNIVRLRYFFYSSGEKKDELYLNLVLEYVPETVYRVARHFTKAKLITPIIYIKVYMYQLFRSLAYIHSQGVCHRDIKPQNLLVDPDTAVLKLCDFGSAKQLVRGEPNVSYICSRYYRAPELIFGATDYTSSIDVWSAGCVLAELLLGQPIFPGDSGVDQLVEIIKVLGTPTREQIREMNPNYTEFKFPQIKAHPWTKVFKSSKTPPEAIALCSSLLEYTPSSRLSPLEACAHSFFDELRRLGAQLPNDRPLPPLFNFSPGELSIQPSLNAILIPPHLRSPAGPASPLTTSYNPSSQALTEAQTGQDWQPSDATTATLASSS

In the case of `O=c1cc(-c2ccc(O)c(O)c2)oc2cc(O)cc(O)c12` [luteolin], the “levels of serine 21-phosphorylated, inactive GSK-3α isoforms” value (GSK-3α/β; SweAPP N2a cells) is reported as “increased the levels”, the “levels of tyrosine 279 phosphorylated active GSK-3α isoforms” value (GSK-3α/β; through 3 hrs (FIGS. 13 and 17)) is reported as “concurrently decreased in time-dependent manner” and the “accumulation of both α and β CTFs (increase over control)” value (SweAPP N2a cells; dose dependent, 12 hrs, Western blot densitometry, SweAPP N2a cells) is reported as 2-3 fold. The “Aβ1-40, 42 peptide generation abrogated” value (SweAPP N2a cells; luteolin 20 μM, 12 hrs, SweAPP N2a cells) was greater than 70%, the “Aβ1-40, 42 peptide generation abrogated” value (SweAPP N2a cells; luteolin 40 μM, 12 hrs, SweAPP N2a cells) was greater than 85% and the “Aβ1-40, 42 production” value (SweAPP N2a cells; result in words, ELISA/IP/Western blot) was “effectively reduced Aβ1-40, 42 production in either cell line in a dose dependent manner”. For the same molecule, the “ratio of APP to actin (full-length APP levels)” value (PS1-APP association; 6E10 Western blot of lysates) was “no significant changes” and the APP-PS1 association (PS1-APP association; IP with anti-PS1 CTF, 6E10 blot) was “disrupted”.
